Reference: patent US20130005660A1, “Plasma Activation of Biological Materials for Surface Modification” (ORTHOBOND, INC., priority 2011, published 2013)

Test: Stability of gentamicin in 0.25M HCl under autoclave conditions
Format: physicochemical

## gentamicin
  stability of gentamicin: No significant loss of gentamicin detection
